Laboratory results from US9115093B2, “Substituted bicyclic dihydropyrimidinones and their use as inhibitors of neutrophil elastase activity” (Boehringer Ingelheim International GmbH, priority 2013, dated 2015).

Experiments:
neutrophil elastase [1] = molecular target: T1, neutrophil elastase (Homo sapiens, UniProt P08246); experiment: Neutrophil elastase inhibitory activity in human plasma; format: biochemical; parameters: The stimulated blood is centrifuged to generate the neutrophil elastase enriched plasma; from tissue; host or cells: plasma from zymosan-stimulated citrated whole blood of healthy human donors; settings: neutrophil elastase enriched human plasma (zymosan-stimulated blood), substrate MeOSuc-Ala-Ala-Pro-Val-AMC
T1 sequence (P08246 30-247 limits assumed): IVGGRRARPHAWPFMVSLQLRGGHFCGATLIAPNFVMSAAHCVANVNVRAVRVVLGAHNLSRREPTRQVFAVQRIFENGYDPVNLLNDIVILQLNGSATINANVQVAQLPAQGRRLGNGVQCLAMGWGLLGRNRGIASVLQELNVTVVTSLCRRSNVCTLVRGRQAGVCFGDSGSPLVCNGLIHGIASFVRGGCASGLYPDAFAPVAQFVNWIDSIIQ
Protocol: Assay for the Determination of Neutrophil Elastase Inhibitory Activity in Human Plasma
Citrated blood from human healthy donors is mixed with zymosan suspension and incubated at room temperature. This leads to the stimulation of neutrophils and the release of neutrophil elastase into the plasma. The stimulated blood is centrifuged to generate the neutrophil elastase enriched plasma.
Preparation of Zymosan Working Solution:
• single 45 ml blood sample is taken into a 50 ml tube containing citrate (3.13%, 5 mL) and the tube is gently inverted 4 times. • Immediately after blood sampling, zymosan working solution (5 mL) is added. • After the addition of zymosan working solution, the tubes are capped, mixed gently and incubated at 22° C. for 15 min on a shaker at 20 rpm. • Make 10 ml aliquots after the incubation time. • Centrifuge the 15 ml tubes at 800 g for […] at 4° C. in a Jouan centrifuge. • Harvest the plasma and make 1-5 ml aliquots. • Store the plasma at −80° C.
Various concentrations of the neutrophil elastase inhibitor are incubated with plasma. Subsequently, the enzyme activity is measured using the fluorogenic substrate MeOSuc-Ala-Ala-Pro-Val-AMC (Bachem Cat. No. 1-1270, substrate concentration: 250 μM, pH 7.5, 25 mM TRIS buffer, 250 mM NaCl) in analogous fashion as described for the human neutrophil assay. A dose response curve is generated to calculate the EC50 of the inhibitor. The analysis of the data is performed by the calculation of the percentage of fluorescence in the presence of the test compound compared to the fluorescence of the vehicle control after subtracting the background fluorescence: An inhibitor of the neutrophil elastase enzyme will give values between 100% control (no inhibition) and 0% control (complete inhibition). The human plasma shift of selected compounds can be calculated using the following equation: Human plasma shift=(EC50 in human plasma assay)/(IC50 in human neutrophil elastase assay) The EC50 values of selected compounds in the human plasma assay described above are listed in Table 14.

[2] = Metabolic stability with human hepatocytes; format: in vitro ADME; settings: human hepatocyte suspension, 1 μM, scaled with well stirred model
Protocol: Assay for the Determination of Metabolic Stability with Human Hepatocytes
The metabolic degradation of the test compound is assayed in a human hepatocyte suspension. Human hepatocytes (typically cryopreserved) are incubated in an appropriate buffer system (e.g. Dulbecco's modified eagle medium plus 3.5 μg glucagon/500 mL, 2.5 mg insulin/500 mL and 3.75 mg/500 mL hydrocortison) containing 5% species serum. Following a (typically) […] preincubation in an incubator (37° C., 10% CO2), 5 μl of test compound solution (80 μM; from 2 mM stock solution in DMSO diluted 1:25 with medium) are added into 395 μl hepatocyte suspension (cell density in the range 0.25-5*10^6 cells/mL, typically 1*10^6 cells/mL; final concentration of test compound 1 μM, final DMSO concentration […]). The cells are incubated for six hours (incubator, orbital shaker) and samples (25 μl) are taken at 0, 0.5, 1, 2, 4 and 6 hours. Samples are transferred into acetonitrile and pelleted by centrifugation (5 min). The supernatant is transferred to a new 96-deepwell plate, evaporated under nitrogen and resuspended. The decline of parent compound is analyzed by LC-MS/MS.
The intrinsic clearance CL_[…] is calculated as follows: CL_[…]=Dose/AUC=(C0/CD)/(AUD+clast/k)*1′000/60 (C0: initial concentration in the incubation [μM], CD: cell density of vital cells [10^6 cells/mL], AUD: area under the data [μM*h], clast: concentration of last data point [μM], k: slope of the regression line for parent decline [h^−1])
The calculated in vitro hepatic intrinsic clearance can be scaled up to the intrinsic in vivo hepatic clearance and used to predict hepatic in vivo blood clearance (CL) by the use of a is liver model (well stirred model): CL_[…]_INVIVO [ml/min/kg]=(CL_[…] [μL/min/10^6 cells]* hepatocellularity[10^6 cells/g liver]*liver factor[g/kg bodyweight])/1′000 CL[ml/min/kg]=CL_[…]_INVIVO [ml/min/kg]*hepatic blood flow [ml/min/kg]/(CL_[…]_INVIVO [ml/min/kg]+hepatic blood flow [ml/min/kg]) Qh[%]=CL[ml/min/kg]/hepatic blood flow[ml/min/kg]) (Hepatocellularity, human: 120*10^6 cells/g liver; lver factor, human: 25.7 g/kg bodyweight; blood flow, human: 21 ml/(min*kg))
The predicted human hepatic in vivo blood clearance (CL) of selected compounds in the metabolic stability assay described above are listed in Table 16.

neutrophil elastase [3] = molecular target: T1, neutrophil elastase; experiment: Human Neutrophil Elastase Assay; format: biochemical; parameters: purchased Calbiochem 324681; settings: substrate MeOSuc-Ala-Ala-Pro-Val-AMC, pH 7.5, room temperature
In short: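 Readout: AMC fluorescence (ex 380, em 460 nm) after 60 min room-temperature reaction with 250 nM MeOSuc-AAPV-AMC, following 15 min compound–enzyme preincubation. Buffer: Tris/NaCl pH 7.5, 0.01% BSA.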

[4] = Metabolic stability with human liver microsomes; format: in vitro ADME; settings: pooled human liver microsomes, 37° C., 1 mg/ml protein, NADPH
Protocol: Assay for the Determination of Metabolic Stability with Human Liver Microsomes
The metabolic degradation of the test compound is assayed at 37° C. with pooled human liver microsomes. The final incubation volume of […] per time point contains TRIS buffer pH 7.6 (0.1 M), magnesium chloride (5 mM), microsomal protein (1 mg/ml) and the test compound at a final concentration of […]. Following a short preincubation period at 37° C., the reactions are initiated by addition of beta-nicotinamide adenine dinucleotide phosphate, reduced form (NADPH, 1 mM) and terminated by transfering an aliquot into acetonitrile after different time points. Additionally, the NADPH-independent degradation is monitored in incubations without NADPH, terminated at the last time point. The rol remaining test compound after NADPH independent incubation is reflected by the parameter c(control) (metabolic stability). The quenched incubations are pelleted by centrifugation (10′000 g, 5 min) An aliquot of the supernatant is assayed by LC-MS/MS for the amount of parent compound.
The half-life (t1/2 INVITRO) is determined by the slope of the semilogarithmic plot of the concentration-time profile. The intrinsic clearance (CL_[…]) is calculated by considering the amount of protein in the incubation: CL_[…][μl/min/mg protein]=(ln 2/(half-life [min]*protein content [mg/ml]))*1′000.
The half-life (t1/2 INVITRO) values of selected compounds in the metabolic stability assay described above are listed in Table 15.

EC50 (neutrophil elastase [1]) [nM]	CL (predicted human hepatic in vivo blood clearance) [2] [mL/min/kg]	IC50 (neutrophil elastase [3]) [nM]	t1/2 INVITRO [4] [h]	SMILES
1	0	< 1		CS(=O)(=O)c1cc(C#N)ccc1[C@@H]1C2=C(CCCC2=O)N(c2cccc(C(F)(F)F)c2)C(=O)N1S(C)(=O)=O [Example 68, (S)-3-(Methylsulfonyl)-4-(3-(methylsulfonyl)-2,5-dioxo-1-(3-(trifluoromethyl)phenyl)-1,2,3,4,5,6,7,8-octahydroquinazolin-4-yl)benzonitrile]
	2			CCS(=O)(=O)c1cc(C#N)ccc1[C@H]1NC(=O)N(c2cccc(C(F)(F)F)c2)C2=C1C(=O)CCC2 (single isomer, unassigned) [Example 54A]
1	3	1		CN1C(=O)N(c2cccc(C(F)(F)F)c2)C2=C(C(=O)CCC2)[C@H]1c1ccc(C#N)cc1S(C)(=O)=O [Example 48, (S)-4-(3-Methyl-2,5-dioxo-1-(3-(trifluoromethyl)phenyl)-1,2,3,4,5,6,7,8-octahydroquinazolin-4-yl)-3-(methylsulfonyl)benzonitrile]
	0			CS(=O)(=O)c1cc(C#N)ccc1[C@H]1NC(=O)N(c2cccc(C(F)(F)F)c2)C2=C1C(=O)CCC2 (single isomer, unassigned) [Example 18A]
	3		>2.17	CS(=O)(=O)c1cc(C#N)ccc1C1C2=C(CCCC2=O)N(c2cccc(C(F)(F)F)c2)C(=O)N1CCCO (stereo not drawn) [Example 58.2]
< 1		< 1		CS(=O)(=O)c1cc(C#N)ccc1[C@@H]1C2=C(CCCC2=O)N(c2cccc(C(F)(F)F)c2)C(=O)N1C(N)=O [Example 75, (S)-4-(4-Cyano-2-(methylsulfonyl)phenyl)-2,5-dioxo-1-(3-(trifluoromethyl)phenyl)-1,2,5,6,7,8-hexahydroquinazoline-3(4H)-carboxamide]
	0			CS(=O)(=O)c1cc(C#N)ccc1[C@H]1NC(=O)N(c2cccc(C(F)F)c2)C2=C1C(=O)CCC2 (single isomer, unassigned) [Example 19A]

The next lines start with the molecule.

SMILES	EC50 (neutrophil elastase [1]) [nM]	CL (predicted human hepatic in vivo blood clearance) [2] [mL/min/kg]	IC50 (neutrophil elastase [3]) [nM]	t1/2 INVITRO [4] [h]
CNC(=O)N1C(=O)N(c2cccc(C(F)(F)F)c2)C2=C(C(=O)CCC2)[C@H]1c1ccc(C#N)cc1S(C)(=O)=O (single isomer, unassigned) [Example 47A]		0		
CN1C(=O)N(c2ccnc(C(F)(F)F)c2)C2=C(C(=O)CCC2)C1c1ccc(C#N)cc1S(C)(=O)=O (stereo not drawn) [Example 64, 4-(3-Methyl-2,5-dioxo-1-(2-(trifluoromethyl)pyridin-4-yl)-1,2,3,4,5,6,7,8-octahydroquinazolin-4-yl)-3-(methylsulfonyl)benzonitrile]	1	0	3.6	
CS(=O)(=O)c1cc(C#N)ccc1[C@@H]1C2=C(CCCC2=O)N(c2cccc(C(F)(F)F)c2)C(=O)N1C(=O)NC1CCOCC1 [Example 75.16]		0		>2.17
CC(C)(O)CNC(=O)N1C(=O)N(c2cccc(C(F)(F)F)c2)C2=C(C(=O)CCC2)C1c1ccc(C#N)cc1 (stereo not drawn) [Example 70.9]		0		>2.17
N#Cc1ccc(C2C3=C(CCCC3=O)N(c3cccc(C(F)(F)F)c3)C(=O)N2CC(N)=O)cc1 (stereo not drawn) [Example 33, 2-(4-(4-Cyanophenyl)-2,5-dioxo-1-(3-(trifluoromethyl)phenyl)-1,2,5,6,7,8-hexahydroquinazolin-3(4H)-yl)acetamide]			9.6	
N#Cc1ccc(C2C3=C(CCCC3=O)N(c3cccc(C(F)(F)F)c3)C(=O)N2CC(=O)NCCN2CCCC2=O)cc1 (stereo not drawn) [Example 36.58]			10	
N#Cc1ccc(C2C3=C(CCCC3=O)N(c3cccc(C(F)(F)F)c3)C(=O)N2C(=O)NC2CC2)cc1 (stereo not drawn) [Example 70.3]			< 1	
